This note sets out measurements from patent US12378248B2 (The United States of America, as represented by the …, priority 2018, dated 2025).

One assay concerns the target T1, hA2AAR (Homo sapiens, UniProt P29274).
T1 construct: expressed in transfected cells; host or cells: HEK293
Description: Radioligand binding in membranes of HEK293 cells expressing hA2AAR. The settings on record: read-out: A2AAR % inhibition.

Another assay concerns the target T2, mA1AR (Mus musculus, UniProt Q60612).
T2 sequence (Q60612 1-326): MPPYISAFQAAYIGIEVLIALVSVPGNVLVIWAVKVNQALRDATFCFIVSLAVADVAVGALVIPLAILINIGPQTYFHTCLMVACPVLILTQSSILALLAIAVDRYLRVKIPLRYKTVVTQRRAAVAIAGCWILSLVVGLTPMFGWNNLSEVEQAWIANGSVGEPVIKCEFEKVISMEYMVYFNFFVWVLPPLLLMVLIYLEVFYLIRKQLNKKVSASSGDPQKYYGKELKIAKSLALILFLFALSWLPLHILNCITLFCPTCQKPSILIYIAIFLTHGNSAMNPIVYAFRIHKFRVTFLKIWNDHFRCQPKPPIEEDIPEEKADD
Description: Adenosine receptor binding, mA1AR. The note with it: (m); Ki; read-out: A1AR % inhibition or Ki (converted).

A further assay concerns the target T3, hA3AR (Homo sapiens, UniProt P0DMS8).
T3 construct: expressed in transfected cells; host or cells: CHO
T3 sequence (P0DMS8 1-318): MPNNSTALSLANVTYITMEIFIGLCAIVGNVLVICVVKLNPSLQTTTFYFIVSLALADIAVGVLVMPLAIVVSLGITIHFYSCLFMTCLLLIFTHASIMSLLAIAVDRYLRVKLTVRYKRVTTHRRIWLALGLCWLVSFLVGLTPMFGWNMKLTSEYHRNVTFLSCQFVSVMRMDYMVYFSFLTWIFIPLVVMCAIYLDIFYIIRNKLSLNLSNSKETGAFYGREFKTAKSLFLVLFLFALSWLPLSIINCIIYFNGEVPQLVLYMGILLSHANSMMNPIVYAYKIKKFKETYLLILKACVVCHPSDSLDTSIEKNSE
Description: Radioligand binding in membranes of CHO cells expressing hA3AR. The settings on record: read-out: A3AR % inhibition or Ki.

In a further assay the target is adrenergic receptor β3 (Homo sapiens, UniProt P13945). Description: Off-target interaction determined by the PDSP. The assay is classed as binding. The note with it: read-out: Off-target, receptor (h, unless noted) (Ki, μM): β3.
For another assay, the target named is sigma receptor σ2 (UniProt Q5BJF2). Description: Off-target interaction determined by the PDSP. The assay is classed as binding, human. The settings on record: read-out: Off-target, receptor (h, unless noted) (Ki, μM): σ2.
The target in the next assay is T4, mA3AR (Mus musculus, UniProt Q61618).
T4 sequence (Q61618 1-319): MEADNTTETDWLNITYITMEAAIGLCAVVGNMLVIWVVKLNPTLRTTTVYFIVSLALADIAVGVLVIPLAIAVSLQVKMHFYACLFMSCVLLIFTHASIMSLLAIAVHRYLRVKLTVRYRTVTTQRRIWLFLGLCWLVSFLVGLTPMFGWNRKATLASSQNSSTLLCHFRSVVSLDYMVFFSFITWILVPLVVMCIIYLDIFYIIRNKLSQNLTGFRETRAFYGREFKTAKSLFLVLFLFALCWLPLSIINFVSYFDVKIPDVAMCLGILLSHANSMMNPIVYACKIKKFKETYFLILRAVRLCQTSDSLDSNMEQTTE
As to the kind of experiment: Adenosine receptor binding, mA3AR.

A further assay deals with T5, hA1AR (Homo sapiens, UniProt P30542).
T5 construct: expressed in transfected cells; host or cells: CHO
T5 sequence (P30542 1-326): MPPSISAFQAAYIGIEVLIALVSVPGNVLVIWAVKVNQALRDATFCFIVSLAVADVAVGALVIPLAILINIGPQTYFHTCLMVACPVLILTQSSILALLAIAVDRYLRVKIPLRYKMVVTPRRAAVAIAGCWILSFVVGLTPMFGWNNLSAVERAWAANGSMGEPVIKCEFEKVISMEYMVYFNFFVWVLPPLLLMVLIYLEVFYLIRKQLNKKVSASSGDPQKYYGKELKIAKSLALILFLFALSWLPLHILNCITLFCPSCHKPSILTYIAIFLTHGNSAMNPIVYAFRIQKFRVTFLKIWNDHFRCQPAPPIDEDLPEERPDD
As to the kind of experiment: Radioligand binding in membranes of CHO cells expressing hA1AR, [3H]N6-R-phenylisopropyladenosine. The settings on record: read-out: A1AR % inhibition or Ki.

In another assay the target is histamine receptor H3 (Homo sapiens, UniProt Q9Y5N1). Description: Off-target interaction determined by the PDSP. The settings on record: read-out: Off-target, receptor (h, unless noted) (Ki, μM): H3. It counts as binding.
Assay [1] deals with kappa (KOR) opioid receptor (Homo sapiens, UniProt P41145). Description: Off-target interaction determined by the PDSP. It counts as binding. The settings on record: read-out: Off-target, receptor (h, unless noted) (Ki, μM): KOR.
In a further assay the target is serotonin receptor 5HT2B (Homo sapiens, UniProt P41595). As to the kind of experiment: Off-target interaction determined by the PDSP. It counts as binding. The settings on record: read-out: Off-target, receptor (h, unless noted) (Ki, μM): 5HT2B.
A further assay concerns the target mA2AAR (Mus musculus, UniProt Q60613). As to the kind of experiment: Adenosine receptor binding, mA2AAR. The settings on record: read-out: A2AAR % inhibition (converted).

The structures appear in SMILES notation.

T1 sequence (P29274 whole entry): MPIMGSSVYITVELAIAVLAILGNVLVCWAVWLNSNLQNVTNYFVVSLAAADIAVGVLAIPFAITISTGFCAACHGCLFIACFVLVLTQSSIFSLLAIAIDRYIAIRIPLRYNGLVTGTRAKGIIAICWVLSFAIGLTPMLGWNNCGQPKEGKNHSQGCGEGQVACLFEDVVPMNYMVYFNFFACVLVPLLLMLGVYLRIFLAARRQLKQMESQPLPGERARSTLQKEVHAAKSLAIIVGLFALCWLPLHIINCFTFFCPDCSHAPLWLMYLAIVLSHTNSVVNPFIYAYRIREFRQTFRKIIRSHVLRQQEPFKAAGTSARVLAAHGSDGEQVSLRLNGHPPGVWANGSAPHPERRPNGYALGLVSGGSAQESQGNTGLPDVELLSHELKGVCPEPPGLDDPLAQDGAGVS
Sequence of mA2AAR (Q60613 whole entry): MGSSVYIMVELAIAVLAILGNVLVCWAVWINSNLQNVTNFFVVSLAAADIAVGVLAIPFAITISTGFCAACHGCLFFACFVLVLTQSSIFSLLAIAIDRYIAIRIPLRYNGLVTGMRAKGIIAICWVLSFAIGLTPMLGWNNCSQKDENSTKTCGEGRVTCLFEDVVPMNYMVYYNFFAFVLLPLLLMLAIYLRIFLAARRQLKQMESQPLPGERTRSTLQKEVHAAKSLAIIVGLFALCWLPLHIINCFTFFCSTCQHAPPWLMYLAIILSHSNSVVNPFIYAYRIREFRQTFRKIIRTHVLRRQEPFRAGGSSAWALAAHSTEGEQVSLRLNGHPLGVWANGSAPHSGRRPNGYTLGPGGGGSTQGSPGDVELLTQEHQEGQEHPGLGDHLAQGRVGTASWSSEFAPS
Sequence of kappa (KOR) opioid receptor (P41145 whole entry): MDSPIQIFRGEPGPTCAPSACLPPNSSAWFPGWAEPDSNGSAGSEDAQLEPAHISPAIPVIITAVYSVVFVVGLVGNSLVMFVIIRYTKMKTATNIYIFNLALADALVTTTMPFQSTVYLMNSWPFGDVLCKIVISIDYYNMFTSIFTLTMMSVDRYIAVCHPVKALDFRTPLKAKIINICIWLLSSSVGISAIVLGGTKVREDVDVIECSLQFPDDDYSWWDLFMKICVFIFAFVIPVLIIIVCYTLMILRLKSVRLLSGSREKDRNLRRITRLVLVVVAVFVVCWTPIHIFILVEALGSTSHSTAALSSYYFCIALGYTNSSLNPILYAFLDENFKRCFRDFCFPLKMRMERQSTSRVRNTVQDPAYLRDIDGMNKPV
Sequence of histamine receptor H3 (Q9Y5N1 whole entry): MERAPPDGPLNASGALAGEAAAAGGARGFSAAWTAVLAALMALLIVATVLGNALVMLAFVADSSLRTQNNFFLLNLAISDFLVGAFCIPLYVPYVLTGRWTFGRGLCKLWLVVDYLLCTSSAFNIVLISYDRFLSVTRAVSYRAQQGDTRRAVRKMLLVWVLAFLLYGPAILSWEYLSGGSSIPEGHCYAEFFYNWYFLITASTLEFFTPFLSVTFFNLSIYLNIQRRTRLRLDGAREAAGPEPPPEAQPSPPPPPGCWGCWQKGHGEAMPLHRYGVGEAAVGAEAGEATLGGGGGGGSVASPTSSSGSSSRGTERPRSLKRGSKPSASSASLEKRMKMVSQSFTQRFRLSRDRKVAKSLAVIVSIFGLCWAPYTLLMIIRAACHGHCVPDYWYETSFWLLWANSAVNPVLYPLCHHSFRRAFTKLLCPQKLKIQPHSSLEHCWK
Sequence of adrenergic receptor β3 (P13945 whole entry): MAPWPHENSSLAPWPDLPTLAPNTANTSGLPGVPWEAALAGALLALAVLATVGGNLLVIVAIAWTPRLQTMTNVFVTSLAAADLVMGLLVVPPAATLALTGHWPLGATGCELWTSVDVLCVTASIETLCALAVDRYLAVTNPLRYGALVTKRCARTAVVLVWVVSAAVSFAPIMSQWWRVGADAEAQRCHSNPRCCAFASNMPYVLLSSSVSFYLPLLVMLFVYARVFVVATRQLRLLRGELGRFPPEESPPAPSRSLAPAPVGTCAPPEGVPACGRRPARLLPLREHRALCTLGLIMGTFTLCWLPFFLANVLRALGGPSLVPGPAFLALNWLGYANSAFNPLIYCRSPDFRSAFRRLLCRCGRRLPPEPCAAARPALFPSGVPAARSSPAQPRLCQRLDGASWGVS
Sequence of serotonin receptor 5HT2B (P41595 whole entry): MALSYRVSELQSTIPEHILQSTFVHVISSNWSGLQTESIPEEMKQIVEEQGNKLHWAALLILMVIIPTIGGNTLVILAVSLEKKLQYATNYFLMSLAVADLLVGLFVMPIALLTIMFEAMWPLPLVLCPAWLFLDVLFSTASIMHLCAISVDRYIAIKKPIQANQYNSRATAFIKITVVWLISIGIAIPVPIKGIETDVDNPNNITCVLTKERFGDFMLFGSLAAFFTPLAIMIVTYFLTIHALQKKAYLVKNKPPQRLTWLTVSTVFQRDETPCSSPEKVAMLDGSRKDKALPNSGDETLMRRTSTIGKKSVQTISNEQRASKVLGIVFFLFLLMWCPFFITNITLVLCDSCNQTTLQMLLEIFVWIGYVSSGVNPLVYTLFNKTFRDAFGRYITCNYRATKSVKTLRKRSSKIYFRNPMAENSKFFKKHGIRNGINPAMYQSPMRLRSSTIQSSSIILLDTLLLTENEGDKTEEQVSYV

For `COC(=O)c1ncn([C@H]2[C@H](O)[C@H](O)[C@]3(CO)C[C@H]23)n1` [Compound 39, Methyl 1-((1S,2R,3S,4R,5R)-3,4-dihydroxy-5-(hydroxymethyl)bicyclo[3.1.0]hexan-2-yl)-1H-1,2,4-triazole-3-carboxylate], the inhibition at 10 µM on hA2AAR is 14 ± 5%; on hA3AR, 22 ± 4%; at mA3AR (read-out: A3AR % inhibition or Ki) it was 15 ± 2%; at hA1AR, 6 ± 4%. Further, the Ki is 2990 ± 80 nM on mA1AR, 1.42 µM on adrenergic receptor β3, 1.72 µM on sigma receptor σ2 and 4.52 µM at histamine receptor H3.

With `O=C(NCCO)[C@@]12C[C@@H]1[C@@H](n1cnc3c(N[C@H]4C[C@H]5CC[C@@H]4C5)nc(Cl)nc31)[C@H](O)[C@@H]2O` [Compound 37, (1S,2R,3S,4R,5S)-4-(6-(((1R,2S,4S)-bicyclo[2.2.1]heptan-2-yl)amino)-2-chloro-9H-purin-9-yl)-2,3-dihydroxy-N-(2-hydroxyethyl)bicyclo[3.1.0]hexane-1-carboxamide], the Ki is 5400 nM at hA2AAR ((h), values without % sign (Ki)); 1.56 nM at mA1AR; 127 ± 29 nM on hA3AR ((h), Ki); 2.63 µM in assay [1]; 447 nM on mA3AR ((m), Ki, read-out: A3AR % inhibition or Ki (converted)); 17.6 ± 5.3 nM at hA1AR ((h), Ki). Further, the Ki at serotonin receptor 5HT2B is 0.718 µM. At mA2AAR, the inhibition at 10 µM is 23%.

In general, inhibition refers to the percentage by which the read-out fell short of the control.
